Where a SMILES comes first, the peptide text is derived from it. Bridges are numbered along the chain shown (N, C = ends).

Broadly, the Ki is a dissociation constant, usually derived from enzyme kinetics or from competition with a known ligand. The low end stands for tighter binding, the high end for weaker binding. One may read the IC50 as the point on the concentration scale where inhibition reaches its midpoint.

In experiment [1] the target is T1, Bovine pancreatic trypsin (Bos taurus, UniProt P00760).
T1 construct: purchased Sigma-Aldrich; host or cells: bovine pancreas
T1 sequence (P00760 24-246): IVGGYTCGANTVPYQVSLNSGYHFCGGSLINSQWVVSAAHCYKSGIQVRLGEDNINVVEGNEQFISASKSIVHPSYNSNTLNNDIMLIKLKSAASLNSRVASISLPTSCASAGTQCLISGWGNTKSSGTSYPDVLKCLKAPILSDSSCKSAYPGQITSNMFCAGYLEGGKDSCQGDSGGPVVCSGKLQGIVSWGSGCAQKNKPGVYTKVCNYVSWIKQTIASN
Nature of the experiment: Protease inhibition assay, trypsin. It counts as biochemical. The note with it: substrate-independent inhibition constant. On the procedure: (§1) D: Biol. Crystallogr., 69(2013), 114-120; Reinwarth, ChemBioChem, 14(2013), 137-146; Boy, Mol. Imaging Biol. 12(2010), 377-385] Measurements were carried out in triplicates using a Tecan Genios ELISA reader.

The target of experiment [2] is T2, Human matriptase-1 (Homo sapiens, UniProt Q9Y5Y6).
T2 construct: made in house
T2 sequence (Q9Y5Y6 615-855 limits assumed): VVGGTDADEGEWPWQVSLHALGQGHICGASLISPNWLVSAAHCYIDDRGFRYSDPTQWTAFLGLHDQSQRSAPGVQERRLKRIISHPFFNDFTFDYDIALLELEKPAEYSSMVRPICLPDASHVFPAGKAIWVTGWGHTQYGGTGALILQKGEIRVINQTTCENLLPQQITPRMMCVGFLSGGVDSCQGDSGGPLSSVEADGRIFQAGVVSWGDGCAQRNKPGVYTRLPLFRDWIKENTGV
The experiment is described as follows: Protease inhibition assay, matriptase-1. The note with it: substrate-independent inhibition constant. The experiment is classed as biochemical. As to the method:
as §1

For experiment [3], the system named is Human matriptase-1. The experiment is described as follows: Protease inhibition assay, matriptase-1. The experiment is classed as biochemical. The note with it: matriptase-1 versus trypsin. On the procedure: as §1
The test system of experiment [4] is pro-uPA activation by matriptase-1 on human prostate carcinoma cancer cells (PC-3). The experiment is described as follows: Cell inhibition assay: inhibition of pro-uPA activation on PC-3 cells. The note with it: overnight incubation, read-out: IC50 (uPA substrate turnover, indirect determination). It counts as cell-based. On the procedure: Urokinase-type plasminogen activator (uPA) causes the degradation of the extracellular matrix and plays a critical role in tumor invasion and metastasis.
Human prostate cancer cells (PC-3, Merck KGaA) were cultured in DMEM medium with 10% FCS at 37° C. and 5% CO2, washed with cation-free PBS and harvested by scraping. In the following 1×10^5 cells were incubated in presence of 250 μM Bz-β-Ala-Gly-Arg-pNA.AcOH (American Diagnostica) and the inhibitor of interest in defined dilutions overnight. Product formation was monitored at 405 nm before and after incubation in a microplate reader. IC50 was calculated by non-linear regression using SigmaPlot 11.

Another experiment concerns the target T3, matriptase-1 (Homo sapiens, UniProt Q9Y5Y6).
T3 sequence (Q9Y5Y6 1-855): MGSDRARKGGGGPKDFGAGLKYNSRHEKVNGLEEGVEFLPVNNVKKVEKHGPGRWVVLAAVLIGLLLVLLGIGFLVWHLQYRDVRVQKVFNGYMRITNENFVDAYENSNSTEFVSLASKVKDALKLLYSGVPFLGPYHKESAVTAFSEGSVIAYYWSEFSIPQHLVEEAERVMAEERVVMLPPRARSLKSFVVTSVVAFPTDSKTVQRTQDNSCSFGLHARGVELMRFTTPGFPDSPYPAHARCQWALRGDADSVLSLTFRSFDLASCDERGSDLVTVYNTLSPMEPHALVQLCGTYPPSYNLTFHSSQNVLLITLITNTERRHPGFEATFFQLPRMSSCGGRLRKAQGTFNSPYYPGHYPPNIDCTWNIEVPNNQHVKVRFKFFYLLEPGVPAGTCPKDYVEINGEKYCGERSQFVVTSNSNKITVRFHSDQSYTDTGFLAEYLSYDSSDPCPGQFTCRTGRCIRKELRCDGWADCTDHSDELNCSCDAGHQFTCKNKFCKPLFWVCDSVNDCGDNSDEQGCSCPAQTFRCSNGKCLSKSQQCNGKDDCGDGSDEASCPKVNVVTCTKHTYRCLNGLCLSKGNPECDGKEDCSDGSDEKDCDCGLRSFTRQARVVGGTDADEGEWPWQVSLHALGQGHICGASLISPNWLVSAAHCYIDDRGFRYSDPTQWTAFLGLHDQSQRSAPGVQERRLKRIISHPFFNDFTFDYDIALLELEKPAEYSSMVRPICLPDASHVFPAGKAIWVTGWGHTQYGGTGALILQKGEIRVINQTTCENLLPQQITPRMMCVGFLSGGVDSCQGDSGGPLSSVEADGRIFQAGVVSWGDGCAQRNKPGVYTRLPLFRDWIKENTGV
Particulars: literature; cited from earlier work.

In the case of `CC[C@H](C)[C@H](N)C(=O)NCC(=O)N[C@H](C(=O)N[C@H]1CSSC[C@@H]2NC(=O)[C@H](C)NC(=O)CNC(=O)[C@@H]3CCCN3C(=O)[C@@H]3CSSC[C@@H](C(=O)NCC(N)=O)NC(=O)[C@H](Cc4ccc(O)cc4)NC(=O)CNC(=O)[C@H](CC(N)=O)NC(=O)CNC(=O)[C@H](CCCNC(=N)N)NC(=O)[C@H](CSSC[C@H](NC(=O)[C@H](C)NC(=O)[C@H](CCCNC(=N)N)NC(=O)[C@H](CC(C)C)NC(=O)[C@H](CC(C)C)NC(=O)[C@H](CCCCN)NC(=O)[C@@H]4CCCN4C1=O)C(=O)N[C@@H](CCCNC(=N)N)C(=O)N[C@@H](CCCNC(=N)N)C(=O)N[C@@H](CC(=O)O)C(=O)N[C@@H](CO)C(=O)N[C@@H](CC(=O)O)C(=O)N3)NC(=O)[C@H]([C@@H](C)CC)NC2=O)C(C)C` [Inhibitor 4] (H-IGVCPKLLRACRRDSDCPGACICRGNGYCG-NH2; disulfide 4-21, 11-23, 17-29), the Ki in experiment [1] came out at 31.7 ± 4.3 nM; at Human matriptase-1 [2], 4.4 ± 0.6 nM.

Regarding `CC[C@H](C)[C@@H]1NC(=O)[C@@H]2CSSC[C@H](NC(=O)[C@H](CCCNC(=N)N)NC(=O)[C@H](CCCNC(=N)N)NC(=O)[C@@H](N)CC(N)=O)C(=O)N3CCC[C@H]3C(=O)N[C@@H](CCCCN)C(=O)N[C@@H](C(C)C)C(=O)N[C@@H](CC(C)C)C(=O)N[C@@H](CCCCN)C(=O)N[C@@H](C)C(=O)N[C@H]3CSSC[C@H](NC1=O)C(=O)N[C@@H](CCCNC(=N)N)C(=O)NCC(=O)N[C@@H](CC(N)=O)C(=O)NCC(=O)N[C@@H](Cc1ccc(O)cc1)C(=O)N[C@H](C(=O)NCC(N)=O)CSSC[C@H](NC(=O)[C@H](CC(=O)O)NC(=O)[C@H](CO)NC(=O)[C@H](CC(=O)O)NC(=O)[C@H](CCCNC(=N)N)NC(=O)[C@H](CCCNC(=N)N)NC3=O)C(=O)N1CCC[C@H]1C(=O)NCC(=O)N[C@@H](C)C(=O)N2` [Inhibitor 5], the Ki in experiment [1] was 19.2 ± 2.8 nM; on Human matriptase-1 [2], 3.3 ± 0.4 nM.

As for `CC[C@H](C)[C@@H]1NC(=O)[C@@H]2CSSC[C@H](NC(=O)[C@@H](NC(=O)CNC(=O)[C@@H](N)CCCCN)C(C)C)C(=O)N3CCC[C@H]3C(=O)N[C@@H](CCCCN)C(=O)N[C@@H](C(C)C)C(=O)N[C@@H](CC(C)C)C(=O)N[C@@H](CCCNC(=N)N)C(=O)N[C@@H](CCCCN)C(=O)N[C@H]3CSSC[C@H](NC1=O)C(=O)N[C@@H](CCCNC(=N)N)C(=O)N[C@@H](C)C(=O)N[C@@H](CC(N)=O)C(=O)NCC(=O)N[C@@H](Cc1ccc(O)cc1)C(=O)N[C@H](C(=O)NCC(N)=O)CSSC[C@H](NC(=O)[C@H](CC(=O)O)NC(=O)[C@H](CO)NC(=O)[C@H](CC(=O)O)NC(=O)[C@H](CCCCN)NC(=O)[C@H](CCCNC(=N)N)NC3=O)C(=O)N1CCC[C@H]1C(=O)NCC(=O)N[C@@H](C)C(=O)N2` [Inhibitor 6] (H-KGVCPKVLRKCRKDSDCPGACICRANGYCG-NH2; disulfide 4-21, 11-23, 17-29), the Ki was found to be 22.3 ± 3 nM in experiment [1] and 7.8 ± 1 nM at Human matriptase-1 [2].

As for `CC[C@H](C)[C@@H]1NC(=O)[C@@H]2CSSC[C@H](NC(=O)[C@@H](NC(=O)CNC(=O)[C@@H](N)Cc3c[nH]c4ccccc34)C(C)C)C(=O)N3CCC[C@H]3C(=O)N[C@@H](CCCCN)C(=O)N[C@@H](C(C)C)C(=O)N[C@@H](CC(C)C)C(=O)N[C@@H](CCCNC(=N)N)C(=O)N[C@@H](CC(N)=O)C(=O)N[C@H]3CSSC[C@H](NC1=O)C(=O)N[C@@H](CC(C)C)C(=O)NCC(=O)N[C@@H](CC(N)=O)C(=O)NCC(=O)N[C@@H](Cc1ccc(O)cc1)C(=O)N[C@H](C(=O)NCC(N)=O)CSSC[C@H](NC(=O)[C@H](CC(=O)O)NC(=O)[C@H](CO)NC(=O)[C@H](CC(=O)O)NC(=O)[C@H](CCCNC(=N)N)NC(=O)[C@H](CCCNC(=N)N)NC3=O)C(=O)N1CCC[C@H]1C(=O)NCC(=O)N[C@@H](C)C(=O)N2` [Inhibitor 7] (H-WGVCPKVLRNCRRDSDCPGACICLGNGYCG-NH2; disulfide 4-21, 11-23, 17-29; N-terminus assumed), the inhibition constant Ki was found to be 35.8 ± 4.7 nM in experiment [1] and 0.83 ± 0.14 nM on Human matriptase-1 [2]. In the experiment with Human matriptase-1 [3], the “Inhibitory activity for matriptase-1 relative to trypsin” value is listed as “approximately fortyfold”. Moreover, the IC50 in experiment [4] came out at 213 nM.

Consider H-R-Q-A-R-Bt, for which, at matriptase-1, the “Ki (matriptase-1), previously reported” value is given as “picomolar” and the “Selectivity, previously reported” value is reported as “low selectivity”.

These data come from patent US20160194380A1, “POTENT INHIBITORS OF HUMAN MATRIPTASE DERIVED FROM MCOTI-II VARIANTS” (MERCK PATENT GMBH, priority 2013, published 2016).
